From ChEMBL document CHEMBL1201862, “PubChem BioAssay data set” (2004)
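Compound exposure: 48 hours, 5 concentrations, 96-well plates. GI50 marks 50% less growth.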 The source made the active and inactive calls. Cut-off read from the data, not from the text of the source: active = GI50 up to about 1.1 µM and inactive = higher.

Key:
Assay in all cases: growth of human tumour cells (NCI), 48 h
ACHN = tested on: ACHN
CAKI-1 = tested on: CAKI-1
CCRF-CEM = tested on: CCRF-CEM
EKVX = tested on: EKVX
IGROV-1 = tested on: IGROV-1
KM12 = tested on: KM12
LXFL 529 = tested on: LXFL 529
OVCAR-4 = tested on: OVCAR-4
RXF 393 = tested on: RXF 393
SF-539 = tested on: SF-539
SK-MEL-2 = tested on: SK-MEL-2
SN12C = tested on: SN12C
UO-31 = tested on: UO-31
BT-549 = tested on: BT-549
HCT-116 = tested on: HCT-116
Hs-578T = tested on: Hs-578T
MDA-MB-231 = tested on: MDA-MB-231
MDA-N = tested on: MDA-N
NCI-H226 = tested on: NCI-H226
SNB-75 = tested on: SNB-75

SMILES	GI50 (ACHN)	GI50 (CAKI-1)	GI50 (CCRF-CEM)	GI50 (EKVX)	GI50 (IGROV-1)	GI50 (KM12)	GI50 (LXFL 529)	GI50 (OVCAR-4)	GI50 (RXF 393)	GI50 (SF-539)	GI50 (SK-MEL-2)	GI50 (SN12C)	GI50 (UO-31)	GI50 (BT-549)	GI50 (HCT-116)	GI50 (Hs-578T)	GI50 (MDA-MB-231)	GI50 (MDA-N)	GI50 (NCI-H226)	GI50 (SNB-75)
CN(C)c1ccc(/C=C(\NC(=O)c2ccccc2)c2nc3cncnc3[nH]2)cc1	> 100 µM (inactive)	> 100 µM (inactive)	> 100 µM (inactive)	> 100 µM (inactive)	> 100 µM (inactive)	> 100 µM (inactive)	> 100 µM (inactive)	> 100 µM (inactive)	> 100 µM (inactive)	> 100 µM (inactive)	> 100 µM (inactive)	> 100 µM (inactive)	> 100 µM (inactive)	–	–	–	–	–	–	–
CC(C)Oc1cccc(N2C(Nc3ccccc3)=Nc3ccncc3S2(=O)=O)c1	26.5 µM (inactive)	26 µM (inactive)	7.55 µM (inactive)	40.5 µM (inactive)	25.4 µM (inactive)	20.7 µM (inactive)	–	15.6 µM (inactive)	21.9 µM (inactive)	23.8 µM (inactive)	7.01 µM (inactive)	30.8 µM (inactive)	19.1 µM (inactive)	22.4 µM (inactive)	20.4 µM (inactive)	39.7 µM (inactive)	15.2 µM (inactive)	23.1 µM (inactive)	24.1 µM (inactive)	> 100 µM (inactive)
Cc1cc(S(=O)(=O)Nc2nc(Nc3ccc(Cl)cc3)n[nH]2)c(S)cc1Cl	37.9 µM (inactive)	36 µM (inactive)	> 100 µM (inactive)	> 100 µM (inactive)	70.5 µM (inactive)	31.6 µM (inactive)	–	> 100 µM (inactive)	> 100 µM (inactive)	> 100 µM (inactive)	> 100 µM (inactive)	> 100 µM (inactive)	79.1 µM (inactive)	> 100 µM (inactive)	> 100 µM (inactive)	86.5 µM (inactive)	> 100 µM (inactive)	55.2 µM (inactive)	> 100 µM (inactive)	> 100 µM (inactive)
COc1cc(OC)c2c(=O)c(OC)c(-c3ccc4c(c3)OCO4)oc2c1	33.6 µM (inactive)	21 µM (inactive)	> 100 µM (inactive)	41.7 µM (inactive)	22.1 µM (inactive)	> 100 µM (inactive)	–	> 100 µM (inactive)	28.1 µM (inactive)	18.1 µM (inactive)	19.1 µM (inactive)	59.7 µM (inactive)	> 100 µM (inactive)	71.1 µM (inactive)	44.4 µM (inactive)	35.1 µM (inactive)	49.9 µM (inactive)	> 100 µM (inactive)	46.3 µM (inactive)	15.9 µM (inactive)
CCCN1CN(C(C(=O)N[C@@H]2C(=O)N3C(C(=O)O)=C(C)CSC23)c2ccc(O)cc2)CSC1=S (stereo not given in full)	> 100 µM (inactive)	> 100 µM (inactive)	66.8 µM (inactive)	> 100 µM (inactive)	> 100 µM (inactive)	> 100 µM (inactive)	> 100 µM (inactive)	> 100 µM (inactive)	–	> 100 µM (inactive)	> 100 µM (inactive)	> 100 µM (inactive)	> 100 µM (inactive)	–	> 100 µM (inactive)	–	–	–	–	> 100 µM (inactive)
CCc1ccccc1NC(=O)C(=O)C(C#N)c1ccccc1Cl (stereo not given)	> 100 µM (inactive)	–	> 100 µM (inactive)	> 100 µM (inactive)	> 100 µM (inactive)	> 100 µM (inactive)	> 100 µM (inactive)	> 100 µM (inactive)	> 100 µM (inactive)	–	> 100 µM (inactive)	> 100 µM (inactive)	> 100 µM (inactive)	–	> 100 µM (inactive)	–	–	–	> 100 µM (inactive)	> 100 µM (inactive)
COc1c(CC(=O)c2ccccc2)c2ccccc2n1C(C)=O	> 100 µM (inactive)	> 100 µM (inactive)	> 100 µM (inactive)	35.6 µM (inactive)	> 100 µM (inactive)	> 100 µM (inactive)	> 100 µM (inactive)	> 100 µM (inactive)	34.5 µM (inactive)	> 100 µM (inactive)	> 100 µM (inactive)	> 100 µM (inactive)	56.8 µM (inactive)	–	> 100 µM (inactive)	–	–	–	–	> 100 µM (inactive)
CCOC(=O)c1cc(OC(=O)CC)c2c(OC)ccc(OC)c2c1	35.2 µM (inactive)	46.2 µM (inactive)	–	35.8 µM (inactive)	> 100 µM (inactive)	42.7 µM (inactive)	37.8 µM (inactive)	52.4 µM (inactive)	30.5 µM (inactive)	47.2 µM (inactive)	> 100 µM (inactive)	78.2 µM (inactive)	74.1 µM (inactive)	–	70.1 µM (inactive)	–	–	–	–	11.4 µM (inactive)
CC(=O)[C@@]1(O)CC[C@H]2[C@@H]3C[C@H](C)C4=CC(=O)CC[C@]4(C)[C@H]3[C@@H](O)C[C@@]21C	> 100 µM (inactive)	> 100 µM (inactive)	14.1 µM (inactive)	68.7 µM (inactive)	> 100 µM (inactive)	> 100 µM (inactive)	–	> 100 µM (inactive)	> 100 µM (inactive)	> 100 µM (inactive)	> 100 µM (inactive)	> 100 µM (inactive)	> 100 µM (inactive)	> 100 µM (inactive)	> 100 µM (inactive)	68.1 µM (inactive)	> 100 µM (inactive)	> 100 µM (inactive)	> 100 µM (inactive)	> 100 µM (inactive)
COc1cc([C@@H]2c3[nH]c4ccccc4c3C(Nc3ccc([N+](=O)[O-])cc3)[C@H]3COC(=O)N23)cc(OC)c1O (stereo not given in full)	0.118 µM (active)	0.247 µM (active)	0.0395 µM (active)	1.78 µM (inactive)	0.406 µM (active)	0.326 µM (active)	–	1.74 µM (inactive)	0.382 µM (active)	0.124 µM (active)	0.847 µM (active)	0.187 µM (active)	1.27 µM (inactive)	0.611 µM (active)	0.365 µM (active)	0.305 µM (active)	0.352 µM (active)	0.875 µM (active)	0.138 µM (active)	0.175 µM (active)
CN1CCN(C)C1c1cccc(C2N(C)CCN2C)c1	> 100 µM (inactive)	–	> 100 µM (inactive)	–	> 100 µM (inactive)	> 100 µM (inactive)	> 100 µM (inactive)	> 100 µM (inactive)	> 100 µM (inactive)	> 100 µM (inactive)	> 100 µM (inactive)	> 100 µM (inactive)	> 100 µM (inactive)	–	> 100 µM (inactive)	–	–	–	> 100 µM (inactive)	48.2 µM (inactive)
O=[N+]([O-])c1c(F)c(F)c2c(c1F)N(CCCCCl)c1ccccc1S2	16.5 µM (inactive)	6.98 µM (inactive)	2.38 µM (inactive)	21.7 µM (inactive)	2.27 µM (inactive)	10.5 µM (inactive)	–	8.57 µM (inactive)	13.8 µM (inactive)	17.2 µM (inactive)	3.63 µM (inactive)	7.5 µM (inactive)	16.9 µM (inactive)	14.6 µM (inactive)	5.05 µM (inactive)	24.8 µM (inactive)	7.89 µM (inactive)	15 µM (inactive)	17.7 µM (inactive)	6.46 µM (inactive)
NC1=NS(=O)(=O)Nc2nc(-c3cccs3)[nH]c21	> 100 µM (inactive)	> 100 µM (inactive)	> 100 µM (inactive)	–	> 100 µM (inactive)	> 100 µM (inactive)	> 100 µM (inactive)	> 100 µM (inactive)	> 100 µM (inactive)	> 100 µM (inactive)	> 100 µM (inactive)	> 100 µM (inactive)	> 100 µM (inactive)	–	> 100 µM (inactive)	–	–	–	–	> 100 µM (inactive)
O=C(Nc1cc(C(=O)Nc2cccc(S(=O)(=O)O)c2)cc(C(=O)Nc2cccc(S(=O)(=O)O)c2)c1)c1cccc(C(=O)Nc2cc(C(=O)Nc3cccc(S(=O)(=O)O)c3)cc(C(=O)Nc3cccc(S(=O)(=O)O)c3)c2)c1	> 100 µM (inactive)	> 100 µM (inactive)	> 100 µM (inactive)	> 100 µM (inactive)	> 100 µM (inactive)	30.7 µM (inactive)	–	> 100 µM (inactive)	> 100 µM (inactive)	> 100 µM (inactive)	> 100 µM (inactive)	> 100 µM (inactive)	> 100 µM (inactive)	> 100 µM (inactive)	> 100 µM (inactive)	> 100 µM (inactive)	> 100 µM (inactive)	> 100 µM (inactive)	> 100 µM (inactive)	> 100 µM (inactive)
CCCCCCCCCCCCCP(=O)(O)NCC(N)=O	28.6 µM (inactive)	–	52.8 µM (inactive)	> 100 µM (inactive)	41.2 µM (inactive)	85.1 µM (inactive)	54.3 µM (inactive)	28.7 µM (inactive)	> 100 µM (inactive)	55.7 µM (inactive)	53.2 µM (inactive)	52.7 µM (inactive)	27.7 µM (inactive)	–	45.7 µM (inactive)	–	–	–	62.4 µM (inactive)	17.4 µM (inactive)
Oc1ccc(/C=C/c2cc(O)cc3c2C(c2cc(O)cc(O)c2)C(c2ccc(O)c(O)c2)O3)cc1 (stereo not given)	15 µM (inactive)	31.7 µM (inactive)	8.34 µM (inactive)	25.3 µM (inactive)	31.4 µM (inactive)	25.6 µM (inactive)	–	16.8 µM (inactive)	41.3 µM (inactive)	34.4 µM (inactive)	28.4 µM (inactive)	17.6 µM (inactive)	30.9 µM (inactive)	23.7 µM (inactive)	35.9 µM (inactive)	26.4 µM (inactive)	29 µM (inactive)	18.2 µM (inactive)	26 µM (inactive)	49.5 µM (inactive)
